Where a name gives a salt, the structure may show the parent alone.
Legend:
[1] = test system: P. falciparum protein translation; experiment: Global protein synthesis by radiolabeling parasite proteins after drug treatment; assay type: cell-based, Plasmodium falciparum; details: for Global protein synthesis after 23 h treatment of rings: 15 µM or 50>15 µM, BFA 5 µg/ml; for Global protein synthesis after 5 h treatment of trophozoites: 15 or 50 µM, BFA 10 µg/ml, 15 min labeling
Description: To gain further insight into the effects of 916, 024, and 025 on parasites, we assessed global protein synthesis following drug treatment by radiolabeling parasite proteins. Treatment of trophozoites with inhibitor for 5 h prior to radiolabeling had no detectable effect on translation, even at 50 µM concentrations (Figure S4A), indicating the compounds are not direct inhibitors of the translation machinery. We next assessed protein synthesis following 23 h of drug treatment of ring stage parasites (aged 1–3 h old at the initiation of treatment). […] Indeed, Giemsa smears following treatment identified a small proportion of pyknotic parasites in the population (results not shown). […] It is possible that PMV inhibition by 916 treatment has a similar but weaker effect to BFA, in that it causes the accumulation of uncleaved PEXEL precursors in the ER, perturbing ER transport, and that this negatively affects translation by an ER stress response. An alternative possibility is that translation was decreased slightly as a result of parasites dying from 916-mediated impairment of erythrocyte remodeling. Either way, the profile for 916 was different to that seen for 024 and 025, even at 50 µM, indicating the latter analogs likely kill parasites via a different mechanism to 916.
Whole parasite proteins were radiolabeled by culturing magnet-purified trophozoites (wild-type 3D7 or expressing PfEMP3-GFP) in Met/Cys-free medium for 30 min at 37°C before addition of 800 µCi/ml ^35S-Met/Cys (Perkin/Elmer) to the medium for the indicated times. Pellets were snap frozen in ethanol/dry ice bath and stored at −80°C. For radiolabeling in the presence of PMV inhibitor, parasites were treated with 20 µM WEHI-916 for 5 h before labeling commenced. For pulse-chases, proteins were radiolabeled in the presence or absence of inhibitor, as above, before further culture in radiolabel-free, inhibitor-free complete medium for the indicated times at 37°C before snap freezing. Frozen samples were either solubilized in Laemmli's buffer (Figure S4) or solubilized in 1% Triton X-100/PBS with protease inhibitor cocktail (Roche) and PfEMP3-GFP species immunopurified with α-GFP agarose (MBL) at 4°C for 2 h (Figures 3 and S3), and proteins were resolved by SDS-PAGE, visualized by autoradiography (7-d exposures), and quantified using a GS-800 Calibrated Densitometer (Bio-Rad).

[2] = target: PMV in P. falciparum–infected erythrocytes (Plasmodium falciparum, UniProt Q8I6Z5); experiment: PEXEL processing of GFP reporters in parasites by immunoblot; assay type: cell-based; details: 5 h treatment, immunoblot
Description: To assess whether 916 could inhibit PMV in P. falciparum–infected erythrocytes, parasites expressing the PEXEL protein P. falciparum erythrocyte membrane protein 3 (PfEMP3) fused to green fluorescent protein (GFP) were treated with increasing concentrations of inhibitor, and PEXEL processing was evaluated by immunoblot. […] A GFP-only band, representing degraded chimera in the food vacuole, was also observed at ∼26 kDa (Figure 3A).
(§1) Trophozoites (30–34 h) expressing PfEMP3-GFP, KAHRP-GFP, or SERA5s-GFP were magnet-purified (Miltenyi Biotech), incubated with inhibitors in 400 µl total volume at 37°C for 1–5 h, treated with 0.09% saponin containing inhibitor, and washed pellets were solubilized in Laemmli's buffer, boiled for 3 min, and frozen at −20°C. Proteins were separated by SDS-PAGE, transferred to nitrocellulose and blocked in 10% skim milk/PBS-T, and probed with rat α-HA (Roche 3F10; 1∶1,000), mouse α-GFP (Roche; 1∶1,000), rabbit α-Aldolase (1∶1,000), rabbit α-HSP70 (1∶4,000), rabbit α-PfPMV (1∶1,000), or rabbit α-Hyp8 (1∶500) primary antibodies followed by horseradish peroxidase-conjugated secondary antibodies (Silenius) and detected by enhanced chemiluminescence (Amersham).

signal peptidase = experiment: Signal peptide cleavage of SERA5s-GFP in parasites by immunoblot; assay type: cell-based, Plasmodium falciparum
Description: This protein contains a signal peptide but lacks a PEXEL and is efficiently secreted to the parasitophorous vacuole (Figure S3B).
as §1

PfPMV = PfPMV (Plasmodium falciparum, UniProt Q8I6Z5); experiment: PEXEL cleavage assay with immunopurified PfPMVHA and fluorogenic KAHRP PEXEL peptide; assay type: biochemical; details: IC50 PfPMV, PfPMVHA
Description: (§2) To investigate PvPMVHA activity, we affinity purified it, as well as the PfPMVHA control, using anti-HA agarose, as previously described,[18]. […] The proteins were incubated with a fluorogenic peptide of nine amino acids that contained the PEXEL sequence from knob-associated histidine-rich protein (KAHRP), and efficient processing was observed by both enzymes (Figure 1E). Cleavage of KAHRP by PfPMVHA was previously shown to occur after Leu (RTL↓) by mass spectrometry, and this position was also confirmed for PvPMVHA (Figure S2B–E). […] In contrast, no processing was observed when the PEXEL Arg and Leu residues were mutated to Ala (ATAAQ), consistent with the substrate specificity of PfPMV (Figure 1E). To verify that processing was due to HA-tagged PMV rather than other co-precipitated proteases, we expressed in P. falciparum a mutant of PvPMVHA or PfPMVHA [13], where one or both catalytic Asp residues were mutated to Ala (see Figure 1A,B). Following affinity purification, the mutant enzymes were incubated with KAHRP PEXEL peptides, but no processing was observed (Figure 1E; blue, white), confirming that the PEXEL-dependent cleavage activity observed for each protease was attributable only to HA-tagged PMV.
(§3) Each compound was incubated with PfPMVHA in the presence of KAHRP PEXEL peptides.
(§4) PMV-agarose was prepared by adding α-HA-agarose (Sapphire Bioscience) to parasite lysates, prepared by sonication in 1% Triton X-100/PBS, for 1 h before extensive washing in same,[13]. PEXEL cleavage assays (20 µl total volume) consisted of 0.2 µl PMV-agarose in digest buffer (25 mM Tris, 25 mM MES, pH 6.4) with 1.5 µM FRET peptide substrate (DABCYL-[…]-E-EDANS, DABCYL-[…]-E-EDANS, LifeTein; DABCYL-[…]-E-EDANS, DABCYL-[…]-E-EDANS; Mimotopes) ± inhibitor. Samples were excited at 340 nm and fluorescence emission measured at 492 nm using an Envision fluorescence plate reader (Perkin-Elmer) heated to 37°C for 150 min. Samples were shaken between measurements. For determination of the peptide cleavage position by PvPMVHA, the fluorogenic peptide (DABCYL-[…]-E-EDANS), representing the wild-type KAHRP PEXEL sequence, was incubated with and without PvPMVHA at 37°C for 48 h. Products of the incubation were detected by a molecular formula algorithm using an Agilent 6200 TOF/6500 series mass spectrometer.

[3] = test system: Human Foreskin Fibroblasts (HFF); experiment: Toxicity against Human Foreskin Fibroblasts; assay type: cell-based; details: Fibroblast
PvPMV = PvPMV (Plasmodium vivax, UniProt A5K302); experiment: PEXEL cleavage assay with immunopurified PvPMVHA and fluorogenic KAHRP PEXEL peptide; assay type: biochemical
Description: (§5) To investigate PvPMVHA activity, we affinity purified it, as well as the PfPMVHA control, using anti-HA agarose, as previously described [13],[18].
(§6) PMV-agarose was prepared by adding α-HA-agarose (Sapphire Bioscience) to parasite lysates, prepared by sonication in 1% Triton X-100/PBS, for 1 h before extensive washing in same [12],[13]. […] Samples were excited at 340 nm and fluorescence emission measured at 492 nm using an Envision fluorescence plate reader (Perkin-Elmer) heated to 37°C for 150 min. Samples were shaken between measurements.

HEpG2 cells = experiment: Toxicity against human HEpG2 cells; assay type: cell-based; details: toxicity against human cell line
[4] = test system: CC(C)C[C@H](NC(=O)[C@@H](NC(=O)[C@H](CCCNC(=N)N)NC(=O)[C@H](CCCCN)NC(=O)[C@H](CC(N)=O)NC(=O)[C@H](CCCNC(=N)N)NC(=O)c1ccc(N=Nc2ccc(N(C)C)cc2)cc1)[C@@H](C)O)C(=O)N[C@@H](C)C(=O)N[C@@H](CCC(N)=O)C(=O)N[C@@H](CCCCN)C(=O)N[C@@H](CCC(N)=O)C(=O)N[C@@H](CCC(=O)NCCNc1cccc2c(S(=O)(=O)O)cccc12)C(N)=O; experiment: PEXEL cleavage assay with immunopurified PfPMVHA and fluorogenic KAHRP PEXEL peptide; assay type: biochemical, Plasmodium falciparum; details: other: Michaelis–Menten, 2 h; pH 6.4; 37.0 °C
Description: as §2, §3, §4

[5] = test system: CC(C)C[C@H](NC(=O)[C@@H](NC(=O)[C@H](CCCNC(=N)N)NC(=O)[C@H](CCCCN)NC(=O)[C@H](CC(N)=O)NC(=O)[C@H](CCCNC(=N)N)NC(=O)c1ccc(N=Nc2ccc(N(C)C)cc2)cc1)[C@@H](C)O)C(=O)N[C@@H](C)C(=O)N[C@@H](CCC(N)=O)C(=O)N[C@@H](CCCCN)C(=O)N[C@@H](CCC(N)=O)C(=O)N[C@@H](CCC(=O)NCCNc1cccc2c(S(=O)(=O)O)cccc12)C(N)=O; experiment: PEXEL cleavage assay with immunopurified PvPMVHA and fluorogenic KAHRP PEXEL peptide; assay type: biochemical, Plasmodium vivax; details: other: Michaelis–Menten, 2 h; pH 6.4; 37.0 °C
Description: as §5, §6

PMV in P. falciparum–infected erythrocytes, sequence (Q8I6Z5 whole entry, the tested form may be a part): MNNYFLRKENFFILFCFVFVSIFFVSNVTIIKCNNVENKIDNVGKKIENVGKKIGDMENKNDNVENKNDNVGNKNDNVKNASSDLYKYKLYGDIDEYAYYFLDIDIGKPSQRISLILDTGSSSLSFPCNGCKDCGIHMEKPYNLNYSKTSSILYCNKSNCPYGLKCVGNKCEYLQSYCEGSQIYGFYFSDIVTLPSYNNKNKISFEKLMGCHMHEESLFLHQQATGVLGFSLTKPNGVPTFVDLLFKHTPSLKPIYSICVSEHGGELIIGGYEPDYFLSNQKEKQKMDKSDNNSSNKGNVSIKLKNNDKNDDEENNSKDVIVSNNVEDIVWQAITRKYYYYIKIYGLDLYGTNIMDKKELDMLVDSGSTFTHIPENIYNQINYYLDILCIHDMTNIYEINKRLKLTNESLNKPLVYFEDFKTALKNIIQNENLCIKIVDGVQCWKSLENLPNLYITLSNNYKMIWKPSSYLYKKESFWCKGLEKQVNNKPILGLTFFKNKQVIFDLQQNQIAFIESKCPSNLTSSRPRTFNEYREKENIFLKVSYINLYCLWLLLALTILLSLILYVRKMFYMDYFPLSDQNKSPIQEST
PvPMV, sequence (A5K302 35-536): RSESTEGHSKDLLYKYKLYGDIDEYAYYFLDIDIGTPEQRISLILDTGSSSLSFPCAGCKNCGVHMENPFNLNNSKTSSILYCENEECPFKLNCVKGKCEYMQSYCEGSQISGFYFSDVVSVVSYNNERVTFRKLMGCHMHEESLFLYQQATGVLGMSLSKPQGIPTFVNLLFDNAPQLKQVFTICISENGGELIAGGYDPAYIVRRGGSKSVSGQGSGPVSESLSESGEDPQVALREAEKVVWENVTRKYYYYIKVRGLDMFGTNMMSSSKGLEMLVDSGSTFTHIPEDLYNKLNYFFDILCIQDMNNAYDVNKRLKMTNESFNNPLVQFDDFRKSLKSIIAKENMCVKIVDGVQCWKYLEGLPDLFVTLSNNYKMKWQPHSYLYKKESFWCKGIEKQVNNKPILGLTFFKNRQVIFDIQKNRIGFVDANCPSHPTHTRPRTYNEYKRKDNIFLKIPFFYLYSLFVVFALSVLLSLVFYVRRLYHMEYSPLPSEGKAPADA
PfPMV, sequence (Q8I6Z5 34-590): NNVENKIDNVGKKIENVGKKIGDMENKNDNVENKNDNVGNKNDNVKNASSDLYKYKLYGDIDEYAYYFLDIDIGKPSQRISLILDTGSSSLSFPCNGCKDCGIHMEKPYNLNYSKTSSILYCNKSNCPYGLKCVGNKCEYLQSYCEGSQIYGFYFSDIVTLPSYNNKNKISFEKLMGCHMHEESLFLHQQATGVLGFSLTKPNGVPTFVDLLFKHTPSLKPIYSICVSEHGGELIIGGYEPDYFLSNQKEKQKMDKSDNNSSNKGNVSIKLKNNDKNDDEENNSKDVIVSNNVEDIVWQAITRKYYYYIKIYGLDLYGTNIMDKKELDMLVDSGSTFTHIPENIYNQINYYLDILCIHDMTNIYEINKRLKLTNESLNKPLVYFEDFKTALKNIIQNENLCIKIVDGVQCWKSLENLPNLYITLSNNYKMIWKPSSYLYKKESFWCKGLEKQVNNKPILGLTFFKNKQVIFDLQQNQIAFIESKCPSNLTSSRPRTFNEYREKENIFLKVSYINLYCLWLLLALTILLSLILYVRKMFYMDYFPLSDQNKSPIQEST

## C[C@H]1CCC/C=C/[C@@H]2C[C@H](O)C[C@H]2[C@H](O)/C=C/C(=O)O1 [Brefeldin A, reference compound]
[1]
  Global protein synthesis after 23 h treatment of rings: severely impaired translation
  Global protein synthesis after 5 h treatment of trophozoites: no defect in global protein synthesis
[1]; listed as BFA
  Global protein synthesis after 23 h treatment of rings: severely reduced translation

## CC(C)C[C@H](NC(=O)[C@@H](NC(=O)[C@H](CCCCN)NS(=O)(=O)Cc1ccccc1)C(C)C)[C@@H](O)CC(=O)NCCc1ccccc1 [compound 024, PhCH2SO2-Lys(NH2)-Val-Sta-NH(CH2)2Ph .TFA]
[2]; 20 and 50 µM
  PEXEL processing of KAHRP-GFP in parasites, in words: no effect
[2]; up to 50 µM
  PEXEL processing of PfEMP3-GFP in parasites, in words: no effect
Signal peptidase; 20 µM for 5 h
  Signal peptide cleavage of SERA5s-GFP, in words: no defect
Signal peptidase; concentrations up to 50 µM
  Effect on PMV or signal peptidase activity in parasites, in words: no affect
PfPMV
  IC50: > 100 µM
[3]
  IC50: > 100 µM
PvPMV
  Activity against PvPMVHA, in words: weak activity
  IC50: > 100 µM
[1]
  Global protein synthesis after 23 h treatment of rings: no defect in global protein synthesis
  Global protein synthesis after 5 h treatment of trophozoites: no defect in global protein synthesis
HEpG2 cells
  IC50: > 100 µM

## PfPMV (Plasmodium falciparum 3D7)
[4]
  Km: 11.7 (±1.8) µM

## PvPMV (Plasmodium vivax Sal-1)
[5]
  Km: 9.7 (±3.0) µM

From PMC4077696 (PLoS Biology, 2014)
